Data: the NIST ThermoML archive (doi:10.1016/j.jct.2012.01.022)

Test: xn = mol fraction of the nth substance listed
Conditions: 101 kPa, Liquid; for speed of sound: Sing-around technique in a fixed-path interferometer; for mass density: Vibrating tube method; for viscosity: Capillary tube (Ostwald / Ubbelohde) method

NCCN [ethane-1,2-diamine] + CCCCCCO
Conditions | mass density [kg/m3] | speed of sound [m/s] | viscosity [mPa·s]
293.15 K, x1 = 0.0773 | 824.126 | 1338.6 | –
293.15 K, x1 = 0.1231 | 827.205 | 1348.9 | –
293.15 K, x1 = 0.1604 | 829.772 | 1358.1 | –
293.15 K, x1 = 0.1925 | 831.826 | 1365.8 | –
293.15 K, x1 = 0.2525 | 835.69 | 1381 | –
293.15 K, x1 = 0.2907 | 837.925 | 1390.2 | –
293.15 K, x1 = 0.3942 | 844.247 | 1417.8 | –
293.15 K, x1 = 0.5086 | 851.229 | 1450.5 | –
293.15 K, x1 = 0.6059 | 857.577 | 1482.3 | –
293.15 K, x1 = 0.7125 | 865.791 | 1522.6 | –
293.15 K, x1 = 0.81 | 874.361 | 1569 | –
293.15 K, x1 = 0.8583 | 879.425 | 1596.2 | –
293.15 K, x1 = 0.9028 | 884.825 | 1623.9 | –
293.15 K, x1 = 0.945 | 890.109 | 1652.7 | –
298.15 K, x1 = 0.0773 | 820.463 | 1321.6 | 4.258
298.15 K, x1 = 0.1213 | – | – | 4.169
298.15 K, x1 = 0.1231 | 823.489 | 1331.9 | –
298.15 K, x1 = 0.1604 | 826.005 | 1340.9 | 4.072
298.15 K, x1 = 0.1925 | 828.015 | 1348.6 | 4
298.15 K, x1 = 0.2525 | 831.807 | 1363.7 | 3.832
298.15 K, x1 = 0.2907 | 833.999 | 1372.7 | 3.72
298.15 K, x1 = 0.3942 | 840.22 | 1399.9 | 3.357
298.15 K, x1 = 0.5086 | 847.107 | 1432.2 | 2.926
298.15 K, x1 = 0.6059 | 853.36 | 1463.5 | 2.528
298.15 K, x1 = 0.7125 | 861.471 | 1503.1 | 2.149
298.15 K, x1 = 0.81 | 869.926 | 1548.7 | 1.851
298.15 K, x1 = 0.8583 | 874.936 | 1575.4 | 1.725
298.15 K, x1 = 0.9028 | 880.277 | 1602.8 | 1.619
298.15 K, x1 = 0.945 | 885.496 | 1630.9 | 1.536
303.15 K, x1 = 0.0773 | 816.783 | 1304.6 | 3.578
303.15 K, x1 = 0.1213 | 819.755 | 1314.9 | 3.551
303.15 K, x1 = 0.1604 | 822.223 | 1323.9 | 3.51
303.15 K, x1 = 0.1925 | 824.193 | 1331.5 | 3.452
303.15 K, x1 = 0.2525 | 827.911 | 1346.5 | 3.324
303.15 K, x1 = 0.2907 | 830.062 | 1355.4 | 3.234
303.15 K, x1 = 0.3942 | 836.182 | 1382.2 | 2.91
303.15 K, x1 = 0.5086 | 842.967 | 1413.9 | 2.537
303.15 K, x1 = 0.6059 | 849.135 | 1444.7 | 2.194
303.15 K, x1 = 0.7125 | 857.138 | 1483.7 | 1.88
303.15 K, x1 = 0.81 | 865.482 | 1528.5 | 1.612
303.15 K, x1 = 0.8583 | 870.432 | 1554.7 | 1.506
303.15 K, x1 = 0.9028 | 875.713 | 1581.5 | 1.428
303.15 K, x1 = 0.945 | 880.874 | 1609.2 | 1.336
308.15 K, x1 = 0.0773 | 813.087 | 1287.8 | 3.066
308.15 K, x1 = 0.1213 | 816.005 | 1298.2 | 3.025
308.15 K, x1 = 0.1604 | 818.427 | 1307 | 2.971
308.15 K, x1 = 0.1925 | 820.356 | 1314.6 | 2.923
308.15 K, x1 = 0.2525 | 824 | 1329.3 | 2.814
308.15 K, x1 = 0.2907 | 826.113 | 1338.1 | 2.737
308.15 K, x1 = 0.3942 | 832.134 | 1364.6 | 2.479
308.15 K, x1 = 0.5086 | 838.821 | 1395.8 | 2.174
308.15 K, x1 = 0.6059 | 844.903 | 1426.1 | 1.892
308.15 K, x1 = 0.7125 | 852.798 | 1464.4 | 1.62
308.15 K, x1 = 0.81 | 861.03 | 1508.5 | 1.404
308.15 K, x1 = 0.8583 | 865.917 | 1534.1 | 1.316
308.15 K, x1 = 0.9028 | 871.143 | 1560.6 | 1.241
308.15 K, x1 = 0.945 | 876.241 | 1587.7 | 1.18
313.15 K, x1 = 0.0773 | 809.362 | 1271.1 | –
313.15 K, x1 = 0.1213 | 812.228 | 1281.6 | –
313.15 K, x1 = 0.1604 | 814.602 | 1290.4 | –
313.15 K, x1 = 0.1925 | 816.496 | 1297.9 | –
313.15 K, x1 = 0.2525 | 820.069 | 1312.4 | –
313.15 K, x1 = 0.2907 | 822.144 | 1321.1 | –
313.15 K, x1 = 0.3942 | 828.065 | 1347 | –
313.15 K, x1 = 0.5086 | 834.657 | 1377.9 | –
313.15 K, x1 = 0.6059 | 840.646 | 1407.5 | –
313.15 K, x1 = 0.7125 | 848.435 | 1445.3 | –
313.15 K, x1 = 0.81 | 856.554 | 1488.5 | –
313.15 K, x1 = 0.8583 | 861.384 | 1513.6 | –
313.15 K, x1 = 0.9028 | 866.55 | 1539.7 | –
313.15 K, x1 = 0.945 | 871.587 | 1566.3 | –
